Reference: US20250221410A1, “SUBSTITUTED 2-C-AZINES AND SALTS THEREOF, AND USE THEREOF AS HERBICIDAL ACTIVE SUBSTANCES” (BAYER AKTIENGESELLSCHAFT, priority 2022, published 2025)

Experiments:
Format in all cases: in vivo
[1] = test system: ABUTH: Abutilon theophrasti; assay: Post-emergence herbicidal efficacy at 1280 g/ha, ABUTH; details: rated visually after about 3 weeks vs untreated controls, 100% = plants have died, 0% = like control plants
How it was run: (§1)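 Read-out is visual percent activity relative to untreated controls (100% = plants died, 0% = no effect), scored about 3 weeks after treatment. Application was post-emergence at the one-leaf stage in the greenhouse, as WP or EC in water with 0.5% additive at 600 L/ha.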

[2] = test system: AMARE: Amaranthus retroflexus; assay: Post-emergence herbicidal efficacy at 1280 g/ha, AMARE; details: rated visually after about 3 weeks vs untreated controls, 100% = plants have died, 0% = like control plants
How it was run: as §1

[3] = test system: DIGSA: Digitaria sanguinalis; assay: Post-emergence herbicidal efficacy at 1280 g/ha, DIGSA; details: rated visually after about 3 weeks vs untreated controls, 100% = plants have died, 0% = like control plants
How it was run: as §1

KCHSC: Kochia scoparia [4] = assay: Post-emergence herbicidal efficacy at 1280 g/ha, KCHSC; details: visual rating about 3 weeks after treatment vs untreated controls
How it was run: as §1

POAAN: Poa annua [5] = assay: Post-emergence herbicidal efficacy at 1280 g/ha, POAAN; details: visual rating about 3 weeks after treatment vs untreated controls
How it was run: as §1

SETVI: Setaria viridis [6] = assay: Post-emergence herbicidal efficacy at 1280 g/ha, SETVI; details: visual rating about 3 weeks after treatment vs untreated controls
How it was run: as §1

VERPE: Veronica persica [7] = assay: Post-emergence herbicidal efficacy at 1280 g/ha, VERPE; details: visual rating about 3 weeks after treatment vs untreated controls
How it was run: as §1

[8] = test system: ABUTH: Abutilon theophrasti; assay: Pre-emergence herbicide efficacy at 1280 g/ha, ABUTH; details: visual scoring after about 3 weeks vs untreated controls
How it was run: (§2)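 Pre-em, sandy loam pots, seeds covered w/ soil. WP/EC formulation, aq. spray onto soil surface, 0.5% additive, 600 L/ha. Greenhouse ~3 wk; visual % vs untreated (0 = control, 100 = dead).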

[9] = test system: AMARE: Amaranthus retroflexus; assay: Pre-emergence herbicide efficacy at 1280 g/ha, AMARE; details: visual scoring after about 3 weeks vs untreated controls
How it was run: as §2

[10] = test system: DIGSA: Digitaria sanguinalis; assay: Pre-emergence herbicide efficacy at 1280 g/ha, DIGSA; details: visual scoring after about 3 weeks vs untreated controls
How it was run: as §2

[11] = test system: ECHCG: Echinochloa crus-galli; assay: Pre-emergence herbicide efficacy at 1280 g/ha, ECHCG; details: visual scoring after about 3 weeks vs untreated controls
How it was run: as §2

LOLRI: Lolium rigidum = assay: Pre-emergence herbicide efficacy at 1280 g/ha, LOLRI; details: visual scoring after about 3 weeks vs untreated controls
Text: (§3) Seeds of mono- and dicotyledonous weed plants were placed in plastic pots in sandy loam soil (doubly sown with one species each of mono- or dicotyledonous weed plants per pot) and covered with soil. The compounds of the invention, formulated in the form of wettable powders (WP) or as emulsion concentrates (EC), were then applied to the surface of the covering soil as aqueous suspension or emulsion with addition of 0.5% additive at a water application rate of 600 litres per hectare (converted). After the treatment, the pots were placed in a greenhouse and kept under good growth conditions for the test plants. After about 3 weeks, the efficacy of the preparations was scored visually in comparison with untreated controls as percentages. For example, 100% activity=the plants have died, 0% activity=like control plants. Tables C1 to C12 below show the effects of selected compounds of the general formula (I) according to Table 1 on various harmful plants and at an application rate corresponding to 1280 g/ha, which were obtained by the trial procedure specified above.

[12] = test system: MATIN: Matricaria inodora; assay: Pre-emergence herbicide efficacy at 1280 g/ha, MATIN; details: visual scoring after about 3 weeks vs untreated controls
Text: as §3

POAAN: Poa annua [13] = assay: Pre-emergence herbicide efficacy at 1280 g/ha, POAAN; details: visual scoring after about 3 weeks vs untreated controls
How it was run: as §2

SETVI: Setaria viridis [14] = assay: Pre-emergence herbicide efficacy at 1280 g/ha, SETVI; details: visual scoring vs untreated controls
How it was run: as §2

STEME: Stellaria media [15] = assay: Pre-emergence herbicide efficacy at 1280 g/ha, STEME; details: visual scoring vs untreated controls
How it was run: as §2

VERPE: Veronica persica [16] = assay: Pre-emergence herbicide efficacy at 1280 g/ha, VERPE; details: visual scoring vs untreated controls
How it was run: as §2

STEME: Stellaria media [17] = assay: Post-emergence herbicidal efficacy at 1280 g/ha, STEME; details: visual rating about 3 weeks after treatment vs untreated controls
How it was run: as §1

KCHSC: Kochia scoparia [18] = assay: Pre-emergence herbicide efficacy at 1280 g/ha, KCHSC; details: visual scoring after about 3 weeks vs untreated controls
How it was run: as §2

[19] = test system: AMARE: Amaranthus retroflexus; assay: Pre-emergence herbicide efficacy at 80 g/ha, AMARE; details: scored visually after about 3 weeks
How it was run: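 Visual scoring against untreated controls after about 3 weeks gave percent activity, where 0% means growth like controls and 100% means plants died. Test compounds, as wettable powders or emulsion concentrates with 0.5% additive, were applied to the covering soil of freshly sown pots at a water rate equivalent to 600 l/ha.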

[20] = test system: AMARE: Amaranthus retroflexus; assay: Post-emergence herbicidal efficacy at 80 g/ha, AMARE; details: visual rating about 3 weeks after treatment vs untreated controls
How it was run: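 Pot-grown weeds in sandy loam were sprayed at one-leaf stage (2–3 weeks post-sowing) with WP or EC formulations plus 0.5% additive at 600 l/ha water. About 3 weeks later in the greenhouse, activity was rated visually against untreated controls, 0% = like control, 100% = dead.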

VERPE: Veronica persica [21] = assay: Post-emergence herbicidal efficacy at 80 g/ha, VERPE; details: visual rating about 3 weeks after treatment vs untreated controls
Experimental: Seeds of monocotyledonous and dicotyledonous weeds and crop plants were placed in sandy loam in plastic or organic planting pots, covered with soil and cultivated in a greenhouse under controlled growth conditions. 2 to 3 weeks after sowing, the test plants were treated at the one-leaf stage. The compounds of the invention, formulated in the form of wettable powders (WP) or as emulsion concentrates (EC), were then sprayed onto the green parts of the plants as aqueous suspension or emulsion with addition of 0.5% additive at a water application rate of 600 l/ha (converted). After the test plants had been kept in the greenhouse under optimum growth conditions for about 3 weeks, the activity of the preparations was rated visually in comparison to untreated controls. For example, 100% activity=the plants have died, 0% activity=like control plants. Tables B1 to B10 below show the effects of selected compounds of the general formula (I) according to Table 1 on various harmful plants and an application rate corresponding to 80 g/ha, which were obtained by the experimental procedure mentioned above.

VERPE: Veronica persica [22] = assay: Pre-emergence herbicide efficacy at 80 g/ha, VERPE; details: scored visually after about 3 weeks
Text: (§4) Seeds of monocotyledonous and dicotyledonous weed plants and crop plants were placed in plastic or organic planting pots and covered with soil. The compounds of the invention, formulated in the form of wettable powders (WP) or as emulsion concentrates (EC), were then applied to the surface of the covering soil as aqueous suspension or emulsion with addition of 0.5% additive at a water application rate equivalent to 600 l/ha. After the treatment, the pots were placed in a greenhouse and kept under good growth conditions for the test plants. After about 3 weeks, the efficacy of the preparations was scored visually in comparison with untreated controls as percentages. For example, 100% activity=the plants have died, 0% activity=like control plants. Tables D1 to D12 below show the effects of selected compounds of the general formula (I) according to Table 1 on various harmful plants and an application rate corresponding to 80 g/ha, which were obtained by the experimental procedure mentioned above.

[23] = test system: ABUTH: Abutilon theophrasti; assay: Pre-emergence herbicide efficacy at 80 g/ha, ABUTH; details: scored visually after about 3 weeks
Text: as §4

POLCO = assay: Pre-emergence herbicide efficacy at 80 g/ha, POLCO; details: Polygonum convolvulus, scored visually after about 3 weeks
Text: as §4

Row | Structure (SMILES) | Post-emergence efficacy at 1280 g/ha against ABUTH in % [1] | Post-emergence efficacy at 1280 g/ha against AMARE in % [2] | Post-emergence efficacy at 1280 g/ha against DIGSA in % [3] | Post-emergence efficacy against KCHSC (KCHSC: Kochia scoparia [4]) | Post-emergence efficacy against POAAN (POAAN: Poa annua [5]) | Post-emergence efficacy against SETVI (SETVI: Setaria viridis [6]) | Post-emergence efficacy against VERPE (VERPE: Veronica persica [7]) | Pre-emergence efficacy against ABUTH [8] | Pre-emergence efficacy against AMARE [9] | Pre-emergence efficacy against DIGSA [10] | Pre-emergence efficacy against ECHCG [11] | Pre-emergence efficacy against LOLRI (LOLRI: Lolium rigidum) | Pre-emergence efficacy against MATIN [12] | Pre-emergence efficacy against POAAN (POAAN: Poa annua [13]) | Pre-emergence efficacy against SETVI in % (SETVI: Setaria viridis [14]) | Pre-emergence efficacy against STEME in % (STEME: Stellaria media [15]) | Pre-emergence efficacy against VERPE in % (VERPE: Veronica persica [16]) | Pre-emergence efficacy against KCHSC (KCHSC: Kochia scoparia [18]) | Pre-emergence efficacy against AMARE in % [19] | Post-emergence efficacy against AMARE [20] | further results
1 | Fc1ccc(Oc2ccccc2Cc2ncc(Cl)cn2)cc1 [Example 1-29] | 90% | 90% | 90% | 90% | 90% | 90% | 100% | 100% | 100% | 100% | 100% | 100% | 90% | 100% | 100% | 90% | 100% |  |  |  | 
2 | N#Cc1cccc(Cc2ncc(Cl)cn2)c1-n1cc(C(F)(F)F)cn1 [Example 1-45] | 90% | 100% | 90% | 100% | 90% | 90% | 100% | 100% | 100% | 100% | 100% | 90% | 90% | 90% | 100% | 100% | 100% | 100% | 100% |  | Post-emergence efficacy against STEME (STEME: Stellaria media [17]): 90%
3 | Fc1cccc(Oc2ncc(Cl)cn2)c1Cc1ncc(Cl)cn1 [Example 1-51] |  | 100% |  | 90% |  |  | 100% | 100% | 100% | 100% | 90% |  | 100% | 90% | 100% | 100% | 100% | 100% | 90% | 100% | Post-emergence efficacy against VERPE (VERPE: Veronica persica [21]): 100%; Pre-emergence efficacy against VERPE in % (VERPE: Veronica persica [22]): 80%
4 | Fc1cnc(Oc2cccc(F)c2Cc2ncc(Cl)cn2)nc1 [Example 1-52] |  | 100% |  | 90% |  |  | 90% | 90% | 100% | 100% | 90% |  | 100% | 100% | 100% | 100% | 90% | 100% | 100% | 80% | Pre-emergence efficacy against ABUTH in % [23]: 90%
5 | Fc1cnc(Cc2ccccc2-c2cc(C(F)F)no2)nc1 [Example 1-135] |  |  |  |  |  |  |  |  |  |  |  |  |  |  |  |  |  |  | 100% | 100% | Pre-emergence efficacy against ABUTH in % [23]: 95%; Pre-emergence efficacy against POLCO in % (POLCO): 90%; Pre-emergence efficacy against VERPE in % (VERPE: Veronica persica [22]): 95%
